Assay results from PMC10463274 (2023).

Assays:
[1] = test system: vancomycin aptamer (DNA, aptamer) CGAGGGTACCGCAATAGTACTTATTGTTCGCCTATTGTGGGTCGG; assay: FFT-EIS electrochemical aptamer-based sensor (ket titration); details: whole bovine blood, 37 °C; apparent; error is 95% confidence interval; Hill–Langmuir fit
[2] = test system: phenylalanine aptamer (DNA, aptamer) CGACCGCGTTTCCCAAGAAAGCAAGTATTGGTTGGTCG; assay: FFT-EIS electrochemical aptamer-based sensor; details: in vitro calibration; details only in supporting information

KD [1] [µM]	binding [2]	SMILES
144 ± 31		CN[C@H](CC(C)C)C(=O)N[C@H]1C(=O)N[C@@H](CC(N)=O)C(=O)N[C@H]2C(=O)N[C@H]3C(=O)N[C@H](C(=O)N[C@H](C(=O)O)c4cc(O)cc(O)c4-c4cc3ccc4O)[C@H](O)c3ccc(c(Cl)c3)Oc3cc2cc(c3O[C@@H]2O[C@H](CO)[C@@H](O)[C@H](O)[C@H]2O[C@H]2C[C@](C)(N)[C@H](O)[C@H](C)O2)Oc2ccc(cc2Cl)[C@H]1O
	yes	N[C@@H](Cc1ccccc1)C(=O)O
